How the values were obtained:
Assay type in all cases: cell-based, rat
INS1 mRNA = assay: qRT-PCR of INS1 mRNA in Tm-treated INS-1 cells; details: Tm co-treatment, 24 h
Experimental: (A-D) INS-1 cells were treated with or without Tm (0.1 m/mL) in the presence of 13d at indicated concentrations or DMSO for 24 h. The mRNA levels of INS1 (A), INS2 (B), PDX1 (C), and MafA (D), were analyzed by qRT-PCR. Relative mRNA levels were normalized against the housekeeping gene Cyclophilin A using the comparative CT method. The results are the means of 3 replicate wells and are representative of 3 independent experiments. * P<0.05 and ** P<0.01 compared with Tm treatment alone. Bars indicate SD. (E) Insulin secretion by INS-1 cells incubated with 1.7 mM and 20 mM glucose in the presence or absence of Tm (0.1 μg/mL) and 13d. Secreted insulin was measured by ELISA after 24 h treatment. * P<0.05. The amount of insulin secreted in response to 1.7 mM glucose in the absence of Tm was set to 1.0 and was normalized with total protein concentration.
(§1) INS-1 cells were seeded at 4×10^5 cells/well in 6-well plates and treated with compounds for the indicated times. […] Relative mRNA levels were normalized against the housekeeping gene Cyclophilin A and were determined by ΔΔCt calculated from the difference in ΔCt values between the target gene and Cyclophilin A with and without treatment, based on comparative CT (cycle threshold) method. […]

XBP1s mRNA = XBP1s mRNA (qRT-PCR and RT-PCR with gel electrophoresis) in Tm-treated INS-1 cells; details: Tm 0.1 μg/mL co-treatment, 8 h
Experimental: INS-1 cells were treated with or without Tm (0.1 μg/mL) in the presence of 13d or DMSO for 8 h. (A) XBP1s mRNA levels were analyzed by qRT-PCR. Relative mRNA levels were normalized against the housekeeping gene Cyclophilin A using the comparative CT method. ** P<0.01 compared with Tm treatment alone. Bars indicate SD. (B) XBP1 mRNA levels were analyzed by RT-PCR and the products were resolved by agarose gel electrophoresis. The full-length (unspliced, XBP1u) and spliced (XBP1s) forms of XBP1 mRNA are indicated. Cyclophilin A mRNA was used as a loading control. Quantification was analyzed by ImageJ program shown at the bottom. The data shown are representative of 3 independent experiments.
Next, we determined the effect of 13d on the activation of IRE1α in β-cells under ER stress. […] We therefore used XBP1 splicing as a marker for the activation of the IRE1α pathway and determined the effect of 13d on IRE1α-mediated XBP1 splicing in INS-1 cells in the presence of Tm.
as §1

INS-1 cells = assay: MTT cell viability assay, INS-1 cells treated with Tm; details: Tm 0.1 μg/mL, 72 h, FIG. 2B
Text: The measurement of intracellular ATP level was use as a surrogate assay for cell viability. […] To confirm the authenticity of 13d's protective effect on β-cell viability (not simply an increase in ATP-specific measurement), we used the MTT assay, which measures the activity of NAD(P)H-dependent cellular oxidoreductase enzymes, as an orthogonal method to measure cell viability. […] To determine whether the protective effect of 13d on β-cells is specific to INS-1 cells, another β-cell line, βTC6, was used. […] In addition, compound 13d on its own had no effect on β-cell viability in both cell lines (FIG. 2C-D).
INS-1 cells or βTC6 cells were seeded at 3×10^3 cells/well in a 384-well plate and treated with compounds at the indicated concentrations. After 3 d treatment, the medium was aspirated and 10 μl of MTT reagent (Cayman Chemical, MI, USA, prepared according to manufacturer's instruction) to each well was added and mixed gently for one minute on an orbital shaker. The cells were then incubated for three hours at 37° C. in a CO2 incubator. After incubation, add 100 μl of crystal dissolving solution to each well, and incubate for 4 hours in a 37° C. CO2 incubator. Viability will be measured for the absorbance to each sample at 570 nm using EnVision multilabel plate reader (PerkinElmer, MA, USA).

O=C(NCc1ccc(C(F)(F)F)cc1)c1cccc(CN2CCCCC2)c1 [Compound 13d, N-(4-trifluoromethylphenmethyl)-3-(N-piperidinyl)methyl benzamide]
Tm-suppressed INS1 mRNA level (INS1 mRNA): completely rescued | Tm-induced increase in XBP1s mRNA level (qRT-PCR) (XBP1s mRNA): abolished | Tm-induced generation of XBP1s mRNA (RT-PCR, electrophoretic separation) (XBP1s mRNA; FIG. 6B): inhibits | viability of INS-1 cells under Tm treatment (MTT) (INS-1 cells): restored the viability of INS-1 cells

— patent publication US11203582B2, “Benzamide derivatives for inhibiting endoplasmic reticulum (ER) stress” (The Board of Regents of the University of Oklahoma, priority 2017, dated 2021)
